Earlier results as cited in patent US11918653B2, “Triglyceride otic formulations and uses thereof” (DOMPÉ FARMACEUTICI S.P.A., priority 2017, dated 2024).

Key:
[1] = system: mouse collagen-induced arthritis model; details: 30 mg/kg dose
[2] = target: T1, lymphotoxin (TNF-β) (Homo sapiens, UniProt P01374)
T1 sequence (P01374 35-205): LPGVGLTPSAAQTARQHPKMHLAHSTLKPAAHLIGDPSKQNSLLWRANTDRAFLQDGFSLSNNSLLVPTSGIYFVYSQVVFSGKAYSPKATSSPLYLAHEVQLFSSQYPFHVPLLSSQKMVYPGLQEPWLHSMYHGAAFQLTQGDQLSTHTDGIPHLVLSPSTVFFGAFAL

[3] = system: TNF-α; details: LPS-challenged mice
[4] = system: rat arthritis model; details: 30 mg/kg
[5] = system: Meniere's disease symptoms; details: infusion into the scala tympani
[6] = target: constitutively activated D136A mutant VP2 receptor (Homo sapiens, UniProt P30518, D136A)
[7] = system: TNF-α production in the LPS-induced MonoMac-6 cells; details: read-out: IC50 for inhibiting TNF-α production
[8] = in vivo
[9] = after topical application
[10] = system: TNF-α production in the LPS-induced human PBMC cells; details: read-out: IC50 for inhibiting TNF-α production
[11] = system: tinnitus; details: administered by IV

Compound: Cc1ccc2nc(NCCN)c3ncc(C)n3c2c1 [BMS-345541]
- severity of disease [1]: significantly reduced the severity of disease

Compound: Adalimumab
- binding or inactivation of lymphotoxin (TNF-β) [2]: does not bind or inactivate
- patients developing injection site reactions (erythema and/or itching, hemorrhage, pain and/or swelling) (systemic administration): 20%

Compound: O=C(Nc1cc(Cl)cc2c1[nH]c1cnccc12)c1cccnc1 [PS-1145]
- production of TNF-α [3]: reduces the production of TNF-α

Compound: COc1cccc2nc(-c3cccs3)nc(NN3C(=O)C=C(C)C3=O)c12 [SPC-839]
- paw edema [4]: reduces paw edema

Compound: Cc1ccccc1C(=O)Nc1ccc(C(=O)N2CCCC(N(C)C)c3ccccc32)cc1.Cl (racemic) [OPC-31260, (±)-5-dimethylamino-1-(4-[2-methylbenzoylamino]benzoyl)-2,3,4,5-tetrahydro-1H-benzazepin hydrochloride]
- Meniere's disease symptoms [5]: marked reduction of Meniere's disease symptoms
- behaviour at D136A mutant VP2 receptor [6]: inverse agonist

Compound: CC(C)C[C@@H](C(=O)N[C@@H](CCCN/C(N)=N/[N+](=O)[O-])C(=O)Nc1nccs1)[C@H](C(C)C)N(O)C=O [Nitroarginine analog A]
- IC50 [7]: 34 nM
- oral activity [8]: lacks oral activity

Compound: C=CC[C@@H]1/C=C(\C)C[C@H](C)C[C@H](OC)[C@H]2O[C@@](O)(C(=O)C(=O)N3CCCC[C@H]3C(=O)O[C@H](/C(C)=C/[C@@H]3CC[C@@H](O)[C@H](OC)C3)[C@H](C)[C@@H](O)CC1=O)[C@H](C)C[C@@H]2OC (relative stereo) [tacrolimus, [3S-[3R*[E(1S*,3S*,4S*)], 4S*,5R*,8S*,9E,12R*,14R*,15S*,16R*,18S*,19S*,26aR*]]-5,6,8,11,12,13,14,15,16,17,18,19,24,25,26,26a-hexadecahydro-5,19-dihydroxy-3-[2-(4-hydroxy-3-methoxycyclohexyl)-1-methylethenyl]-14,16-dimethoxy-4,10,12,18-tetramethyl-8-(2-propenyl)-15,19-epoxy-3H-pyrido[2,1-39c][1,4]oxaazacyclotricosine-1,7,20,21(4H,23H)-tetrone monohydrate]
- bioavailability [9]: less than 0.5%

Compound: CC[C@H](C)[C@H](NC(=O)[C@H](CC(C)C)[C@H](C(C)C)N(O)C=O)C(=O)Nc1ccccn1 [GW3333]
- IC50 [10]: 970 nM

Compound: etanercept
- patients experiencing injection site reactions (systemically treated): over one-third of patients

Compound: CCOc1ccc2c(c1)C1(CCC(OCCN3CCOCC3)CC1)C(=O)N2S(=O)(=O)c1ccc(C(=O)NC(C)(C)C)cc1OC.O=C(O)/C=C/C(=O)O (centres unmarked) [SR-1211463, 1-(4-(N-tert-butylcarbamoyl)-2-methoxybenzenesulfonyl)-5-ethoxy-3-spiro-(4-(2-morpholinoethoxy)cyclohexane)indol-2-one fumarate]
- behaviour at D136A mutant VP2 receptor [6]: inverse agonist

Compound: CCN(CC)CC(=O)Nc1c(C)cccc1C [Lidocaine]
- sufferers in whom noise associated with tinnitus is reduced or eliminated [11]: 60-80%
